Source: DBAASP
Converted amounts (≈) assume the structure as drawn. “And” between values parts separate entries of the source, which are not always exact repeats. Identical values can stand only once.

Key:
Assay in all cases: ≥ marks a high value that may be exact or a test limit, other limits are often not marked, values filed in µg/mL are converted to µM
[1] = system: Candida albicans CCARM 14020
[2] = system: Candida albicans CCARM 14021
Candida albicans SC5314 = system: Candida albicans SC5314
[3] = system: Candida albicans CCARM 14022
[4] = system: Pseudomonas aeruginosa ATCC 10662
Acinetobacter baumannii = system: Acinetobacter baumannii
[5] = system: Staphylococcus epidermidis ATCC 1435
[6] = system: Klebsiella pneumoniae ATCC 27736
[7] = system: Bacillus subtilis ATCC 6633
[8] = system: Pseudomonas aeruginosa ATCC BAA-427
Staphylococcus aureus = system: Staphylococcus aureus
Escherichia coli JM109 = system: Escherichia coli JM109
[9] = system: Vibrio alginolyticus KCCM 2928
[10] = system: Vibrio ordalii KCCM 41669
[11] = system: Vibrio campbellii KCCM 40684
[12] = system: Vibrio vulnificus KCTC 2982
Edwardsiella tarda = system: Edwardsiella tarda
[13] = system: Vibrio harveyi ATCC 14126
[14] = system: Streptococcus iniae FP5228
[15] = system: Listeria monocytogenes N22-2
[16] = system: Salmonella enterica subsp. enterica serovar Typhimurium LT2
Pseudomonas aeruginosa = system: Pseudomonas aeruginosa
[17] = system: Pseudomonas aeruginosa ATCC 27853
[18] = system: Staphylococcus aureus ATCC 29213
[19] = system: Campylobacter jejuni NCTC 11168
[20] = system: Aeromonas salmonicida ATCC 33658
Escherichia coli BW25113 = system: Escherichia coli BW25113
[21] = system: Yersinia ruckeri 392/2003
[22] = system: Staphylococcus aureus ATCC 43300
Enterococcus faecalis = system: Enterococcus faecalis
[23] = system: Escherichia coli ATCC BAA-2523
[24] = system: Escherichia coli ATCC 25922 ΔrfaC
[25] = system: Flavobacterium psychrophilum 1947
Enterococcus faecalis VR = system: Enterococcus faecalis VR
[26] = system: Escherichia coli BW25113 ΔrfaC
[27] = system: Enterococcus faecalis ATCC 29212
[28] = system: Escherichia coli ATCC 25922
[29] = system: Escherichia coli DH5alpha
[30] = system: Xanthomonas oryzae pv. oryzae
Bacillus subtilis = system: Bacillus subtilis
[31] = system: Cryptococcus neoformans var. grubii H99
[32] = system: Xanthomonas campestris pv. campestris
[33] = system: Pseudomonas aeruginosa 0108
[34] = system: Pseudomonas aeruginosa CGMCC 1.860
Escherichia coli AS1.349 = system: Escherichia coli AS1.349
Bacillus cereus AS1.126 = system: Bacillus cereus AS1.126
[35] = system: Enterococcus faecium CGMCC 1.2334
[36] = system: Lactococcus lactis AS1.1690
[37] = system: Staphylococcus aureus AS1.72
[38] = system: Enterococcus faecalis CGMCC 1.595

Compound: CC(C)C[C@H](NC(=O)CNC(=O)[C@H](Cc1cnc[nH]1)NC(=O)[C@H](Cc1cnc[nH]1)NC(=O)[C@H](CCCN=C(N)N)NC(=O)[C@H](CCCCN)NC(=O)[C@H](C)N)C(=O)N[C@@H](CC(N)=O)C(=O)N[C@@H](CS)C(=O)N[C@@H](C)C(=O)N[C@@H](CCCCN)C(=O)NCC(=O)N[C@H](C(=O)N[C@@H](CC(C)C)C(=O)N[C@@H](C)C(N)=O)C(C)C [AKRHHGLNCAKGVLA]
- MIC [1]: 14.4 µM (≈ 22.6 µg/mL)
- MIC [2]: 3.59 µM (≈ 5.65 µg/mL)
- MIC (Candida albicans SC5314): 14.4 µM (≈ 22.6 µg/mL)
- MIC [3]: 3.59 µM (≈ 5.65 µg/mL)

Compound: CC[C@H](C)[C@H](NC(=O)CNC(=O)[C@H](CCCN=C(N)N)NC(=O)[C@H](Cc1ccccc1)NC(=O)[C@@H](NC(=O)[C@H](Cc1cnc[nH]1)NC(=O)[C@H](Cc1cnc[nH]1)NC(=O)[C@H](Cc1ccccc1)NC(=O)[C@@H](N)Cc1ccccc1)[C@@H](C)CC)C(=O)N[C@H](C(=O)N[C@@H](Cc1cnc[nH]1)C(=O)N[C@H](C(=O)NCC(=O)N[C@@H](CCCCN)C(=O)N[C@H](C(=O)N[C@@H](C)C(=O)N[C@@H](Cc1cnc[nH]1)C(=O)N[C@@H](CCCN=C(N)N)C(=O)N[C@@H](CC(C)C)C(=O)N[C@H](C(=O)N[C@H](C(=O)NCC(N)=O)[C@@H](C)O)C(C)C)[C@@H](C)O)C(C)C)C(C)C [FFHHIFRGIVHVGKTAHRLVTG]
- MIC [4]: 9.88 µM (≈ 25 µg/mL)
- MIC (Acinetobacter baumannii): 1.23 µM (≈ 3.1 µg/mL)
- MIC [5]: 0.593 µM (≈ 1.5 µg/mL)
- MIC [6]: 8 µM (≈ 20.2 µg/mL)
- MIC [7]: 8 µM (≈ 20.2 µg/mL)
- MIC [8]: 12 µM (≈ 30.3 µg/mL)
- MIC (Staphylococcus aureus): 1.23 µM (≈ 3.1 µg/mL)

Compound: CC[C@H](C)[C@H](NC(=O)[C@H](C)NC(=O)[C@H](Cc1cnc[nH]1)NC(=O)CNC(=O)[C@@H](NC(=O)CNC(=O)[C@H](Cc1cnc[nH]1)NC(=O)[C@H](CC(C)C)NC(=O)[C@H](CC(C)C)NC(=O)[C@H](CCSC)NC(=O)CNC(=O)[C@H](CC(C)C)NC(=O)[C@H](Cc1ccccc1)NC(=O)CNC(=O)[C@H](CCC(=O)O)NC(=O)CN)C(C)C)C(=O)N[C@@H](Cc1cnc[nH]1)C(=O)NCC(=O)N[C@@H](CC(C)C)C(=O)N[C@H](C(=O)N[C@@H](Cc1cnc[nH]1)C(=O)NCC(=O)N[C@@H](CCCCN)C(=O)O)[C@@H](C)CC [GEGFLGMLLHGVGHAIHGLIHGK]
- MIC (Escherichia coli JM109): 2.72 µM (≈ 6.4 µg/mL)
- MIC [9]: 1.31 µM (≈ 3.07 µg/mL)
- MIC [10]: 0.9 µM (≈ 2.12 µg/mL)
- MIC [11]: 1.9 µM (≈ 4.47 µg/mL)
- MIC [12]: 5.52 µM (≈ 13 µg/mL)
- MIC (Edwardsiella tarda): ≥ 354 µM
- MIC [13]: 0.9 µM (≈ 2.12 µg/mL)
- MIC [14]: 0.9 µM (≈ 2.12 µg/mL)

Compound: CC[C@H](C)[C@H](NC(=O)[C@H](CC(C)C)NC(=O)[C@H](CCCCN)NC(=O)[C@H](CC(C)C)NC(=O)[C@H](CC(C)C)NC(=O)[C@H](CCCCN)NC(=O)[C@H](CCCN=C(N)N)NC(=O)[C@H](Cc1ccccc1)NC(=O)[C@H](CC(C)C)NC(=O)[C@H](CCCCN)NC(=O)[C@H](CCCN=C(N)N)NC(=O)[C@H](CC(C)C)NC(=O)[C@@H](N)CCCCN)C(=O)N[C@@H](CCCN=C(N)N)C(=O)N[C@@H](CCCCN)C(=O)N[C@@H](CC(C)C)C(=O)N[C@@H](CC(C)C)C(=O)N[C@@H](CCCN=C(N)N)C(=O)O [KLRKLFRKLLKLIRKLLR]
- MIC [15]: 6.85 µM (≈ 16 µg/mL)
- MIC [16]: 6.85 µM (≈ 16 µg/mL)
- MIC (Pseudomonas aeruginosa): 16 µM (≈ 37.4 µg/mL)
- MIC [17]: 9.69 µM and 16 µM
- MIC [18]: 6.85 µM and 16 µM
- MIC [19]: 0.856 µM (≈ 2 µg/mL)
- MIC [20]: 19.4 µM (≈ 45.3 µg/mL)
- MIC (Escherichia coli BW25113): 6.85 µM (≈ 16 µg/mL)
- MIC [21]: 4.84 µM (≈ 11.3 µg/mL)
- MIC [22]: 16 µM (≈ 37.4 µg/mL)
- MIC (Enterococcus faecalis): 16 µM (≈ 37.4 µg/mL)
- MIC [23]: ≥ 32 µM
- MIC [24]: 6.85 µM (≈ 16 µg/mL)
- MIC [25]: ≥ 110 µM
- MIC (Enterococcus faecalis VR): 16 µM (≈ 37.4 µg/mL)
- MIC [26]: 3.42 µM (≈ 8 µg/mL)
- MIC [27]: 4.84 µM (≈ 11.3 µg/mL)
- MIC [28]: 9.69 µM and 16 µM

Compound: CC(C)C[C@H](NC(=O)CNC(=O)[C@H](CS)NC(=O)CNC(=O)[C@H](CC(N)=O)NC(=O)CNC(=O)[C@H](Cc1c[nH]c2ccccc12)NC(=O)CNC(=O)[C@H](CCCN=C(N)N)NC(=O)[C@H](C)NC(=O)[C@@H](N)C(C)C)C(=O)N[C@@H](Cc1ccccc1)C(=O)NCC(=O)N[C@@H](CCCCN)C(=O)NCC(=O)NCC(=O)O [VARGWGNGCGLFGKGG]
- MIC [29]: ≥ 100 µM
- MIC [30]: ≥ 100 µM
- MIC [17]: > 100 µM
- MIC (Bacillus subtilis): ≥ 100 µM
- MIC [31]: ≥ 100 µM
- MIC (Candida albicans SC5314): ≥ 100 µM
- MIC [32]: ≥ 100 µM

Compound: CC[C@H](C)[C@H](NC(=O)[C@H](CCCCN)NC(=O)[C@H](CO)NC(=O)[C@H](CC(C)C)NC(=O)[C@@H](NC(=O)[C@H](CCCCN)NC(=O)[C@H](CCCCN)NC(=O)[C@@H](N)Cc1c[nH]c2ccccc12)[C@@H](C)CC)C(=O)N[C@@H](CCCCN)C(=O)N[C@@H](CCCCN)C(=O)N[C@@H](CC(C)C)C(=O)N[C@@H](CC(C)C)C(=O)N[C@@H](CCCCN)C(N)=O [WKKILSKIKKLLK]
- MIC [33]: 6.25 µM (≈ 10.2 µg/mL)
- MIC [34]: 3.13 µM (≈ 5.09 µg/mL)

Compound: NC(N)=NCCC[C@H](NC(=O)[C@H](Cc1cnc[nH]1)NC(=O)[C@H](Cc1c[nH]c2ccccc12)NC(=O)[C@H](Cc1ccccc1)NC(=O)[C@H](CCCN=C(N)N)NC(=O)[C@H](CCCN=C(N)N)NC(=O)[C@H](Cc1c[nH]c2ccccc12)NC(=O)[C@H](Cc1cnc[nH]1)NC(=O)[C@H](CCCN=C(N)N)NC(=O)[C@@H](N)Cc1c[nH]c2ccccc12)C(=O)O [WRHWRRFWHR]
- MIC (Escherichia coli AS1.349): 25 µM (≈ 40.6 µg/mL)
- MIC (Bacillus cereus AS1.126): 6.25 µM (≈ 10.1 µg/mL)
- MIC [35]: 6.25 µM (≈ 10.1 µg/mL)
- MIC [36]: 6.25 µM (≈ 10.1 µg/mL)
- MIC [34]: 3.13 µM (≈ 5.08 µg/mL)
- MIC [37]: ≥ 50 µM
- MIC [38]: 3.13 µM (≈ 5.08 µg/mL)
